Results from publication PMC3006138, “Fexinidazole – A New Oral Nitroimidazole Drug Candidate Entering Clinical Development for the Treatment of Sleeping Sickness” (PLoS Neglected Tropical Diseases, 2010).
Where “and” joins values, the source holds several entries; their conditions need not be identical. Identical values can stand only once. Like-named read-outs stand apart in the source and are kept apart here. One block for each molecule: values may come before it.

Experiments:
[1] = tested on: L-6 rat myoblast cells; experiment: Cytotoxicity assay; format: cell-based; details: 72 h, read-out: IC50
Method: (§1) 10 µL of Alamar Blue was added for the final 3 h to determine viability. […] The IC50 values were calculated from the sigmoidal inhibition curves. For cytotoxicity, 4×10^4/mL L-6 rat skeletal myoblast cells were used, and incubations and assessments carried out as above.

[2] = tested on: T. b. rhodesiense (STIB 900); experiment: In vitro trypanocidal assay (Alamar Blue); format: cell-based, Trypanosoma brucei rhodesiense
Method: as §1

[3] = tested on: rat liver cells; experiment: Ex vivo unscheduled DNA synthesis; format: in vivo; details: positive control
Method: Groups of young male Sprague-Dawley rats received fexinidazole at doses of 500, 1000, or 2000 mg/kg orally, and the livers were sampled either 2–4 h or 12–14 h after administration. Hepatocyte suspensions were prepared and incubated in the presence of […] thymidine. Slides of fixed hepatocytes were coated in photographic emulsion and stored for 14 days at 4°C in the dark. The silver grains above the nuclei or cytoplasm (background) were counted, providing a measure of DNA uptake during DNA repair. The difference between these two counts indicated the extent of DNA repair (nuclear net grain count).

[4] = tested on: T. b. gambiense (STIB 930); experiment: In vitro trypanocidal assay (Alamar Blue); format: cell-based, Trypanosoma brucei gambiense; details: Trypanosoma brucei, 72 h; read-out: IC50
Method: Parasites were cultured with or without the test article at a concentration of 3×10^4/mL in Minimal Essential Medium, according to Baltz et al., with the following modifications: 0.2 mM 2-mercaptoethanol, 1 mM Na-pyruvate, 0.5 mM hypoxanthine and 15% heat inactivated horse serum at 37°C in 5% CO2 in 96-well microtitre plates for 72 h. 10 µL of Alamar Blue was added for the final 3 h to determine viability. The assay was assessed by reading the fluorescence in each well at an excitation wavelength of 536 nm and at an emission wavelength of 588 nm. The IC50 values were calculated from the sigmoidal inhibition curves. For cytotoxicity, 4×10^4/mL L-6 rat skeletal myoblast cells were used, and incubations and assessments carried out as above.

[5] = in vivo; details: male, NMRI, mouse, po, 200 mg/kg/day
Method: The study was conducted according to the study protocol [1].
gavage daily for 5 consecutive days at a dose of 200 mg/kg in a 5 % tween 80/ 0.5 %
Formulation Preparation and Concentration Check
were prepared according to the procedure already developed [2]; a sufficient volume of each
suspension was prepared in order to support the 5-day repeated oral administration. The
suspensions were stored at +4°C. The supportive stability data for the Fexinidazole
suspension after 7 days at +4°C was performed.
a specific, not validated, HPLC-UV method [2]. Three samples were analyzed for each
Sample Collection and Handling
About 0.05-0.07 mL of blood/sampling time were taken from the saphenous vein using
heparinized tubes (pre-cooled in an ice/water bath) and were centrifuged at 10000g for 3
minutes at 4°C. The separated plasma was stored at -80°C until analysis. Blood was taken at
validated LC-MS-MS methods.
Pharmacokinetic Calculations
Pharmacokinetic evaluation was carried out using a non-compartmental approach with the
aid of the Watson package (v. 6.4.0.04, Thermo Fisher Scientific, Waltham, MA, USA).
For the calculations, pre-dose concentrations of both compounds were set equal to zero.
After both compounds, on Day 5, Cmax and tmax were read from the raw plasma data as the
coordinates of the highest measured concentration. The area under plasma concentration vs.
time curve to finite time, AUC0-t(last), was determined by the linear trapezoidal rule up to the
last detectable concentration. The half-life of the terminal phase, t1/2,z, was determined by
linear regression analysis of the natural-log concentration vs. time curve, where t1/2,z =
ln(2)/slope of the regression line.
Descriptive statistics (mean ± SD, %CV) were reported for plasma concentrations and
pharmacokinetic parameters sorted by compound.
reported to three significant figures.
Plasma concentrations of sulphoxide and sulphone Fexinidazole metabolites were determined
by a LC-MS-MS method. The lower limit of the bioanalytical method was 5 ng/mL (run 1)
(v. 6.4.0.04, Thermo Fisher Scientific, Waltham, MA, USA).
Pharmacokinetic evaluations of the sulphone and sulphoxide metabolites were carried out
using non-compartmental approach with the aid of the Watson package (v. 6.4.0.04, Thermo
Fisher Scientific, Waltham, MA, USA).
After both doses, for the calculations, the pre-dose concentrations of the metabolites were set
Cmax and tmax were read from raw data as the coordinates of the highest measured

Compound: Cc1ccc(C(=O)Nc2ccc(S(=O)(=O)O)c3cc(S(=O)(=O)O)cc(S(=O)(=O)O)c23)cc1NC(=O)c1cccc(NC(=O)Nc2cccc(C(=O)Nc3cc(C(=O)Nc4ccc(S(=O)(=O)O)c5cc(S(=O)(=O)O)cc(S(=O)(=O)O)c45)ccc3C)c2)c1 [Suramin]
IC50 [1]: > 90 µg/mL and > 70 µM | IC50 ([2]; Trypanosoma brucei, 72 h; read-out: IC50): 0.062 µg/mL and 46 nM

Compound: CN(C)N=O [dimethylnitrosamine, reference compound]
Net nuclear grain count (2–4 h) ([3]; 10 mg/kg): 8.9

Compound: CC(=O)Nc1ccc2c(c1)Cc1ccccc1-2 [2-acetamidofluorene, reference compound]
Net nuclear grain count (12–14 h) ([3]; 75 mg/kg): 9.8

AUC(0-t) [5]: 45700 ± 5880 ng·h/mL | Cmax [5]: 9250 ± 765 ng/mL | Tmax [5]: 1.5 ± 1.32 h | half-life [5]: 3.12 ± 1.45 h
Compound: CC1CS(=O)(=O)CCN1/N=C/c1ccc([N+](=O)[O-])o1 (centres unmarked) [Nifurtimox]
IC50 [1]: 25 µg/mL and 87 µM | IC50 [4]: 0.31 µg/mL and 1.08 µM | IC50 ([2]; Trypanosoma brucei, 72 h, read-out: IC50): 0.4 µg/mL and 1.44 µM
